Measured values as given in ChEMBL document CHEMBL3045494, “Inhibitory effect and structureactivity relationship of some Biginelli-type pyrimidines against HSV-1” (Med Chem Res, 2013).
The source made the active and inactive calls. The rule behind the calls is not given here.

Assays:
Human alphaherpesvirus 1 [1] = assay: Antiviral activity against Human herpesvirus 1 strain KOS infected Vero cells at 20 umol/L incubated at 4 hr post-infection measured after 68 hr by plaque reduction assay; type: functional, organism-based
Human alphaherpesvirus 1 [2] = assay: Antiviral activity against Human herpesvirus 1 strain KOS infected Vero cells at 20 umol/L incubated at 2 hr post-infection measured after 70 hr by plaque reduction assay; type: functional, organism-based
Human alphaherpesvirus 1 [3] = assay: Antiviral activity against Human herpesvirus 1 strain KOS infected Vero cells at 20 umol/L incubated for 2 hr prior to infection measured after 72 hr by plaque reduction assay; type: functional, organism-based
Human alphaherpesvirus 1 [4] = assay: Antiviral activity against Human herpesvirus 1 strain KOS infected Vero cells at 20 umol/L incubated for 4 hr prior to infection measured after 72 hr by plaque reduction assay; type: functional, organism-based
[5] = Selectivity index, ratio of CC25 for African green monkey Vero cells to IC25 for Herpes simplex virus 1 KOS; type: toxicity, cell-based; settings: read-out: Selectivity Index
[6] = Therapeutic index, ratio of CC50 for African green monkey Vero cells to IC50 for Herpes simplex virus 1 KOS; type: cell-based; settings: read-out: Ratio CC50/IC50
[7] = (§1) Cytotoxicity against Chlorocebus aethiops (African green monkey) Vero cells after 72 hr by XTT assay; type: cell-based; settings: chlorocebus sabaeus, Vero cells
Vero = assay: as §1; type: cell-based; settings: chlorocebus sabaeus, vero, 72 h
Human alphaherpesvirus 1 [8] = assay: Antiviral activity against Human herpesvirus 1 strain KOS infected Vero cells after 72 hr by plaque reduction assay; type: functional, organism-based; settings: Human alphaherpesvirus 1, KOS, Vero, 72 h; for IC50: read-out: IC50
Human alphaherpesvirus 1 [9] = assay: Antiviral activity against Human herpesvirus 1 strain KOS infected Vero cells at 20 umol/L incubated immediately after infection for 72 hr by plaque reduction assay; type: functional, organism-based

Row | SMILES | Activity (Human alphaherpesvirus 1 [1]) | Activity (Human alphaherpesvirus 1 [2]) | Activity (Human alphaherpesvirus 1 [3]) | Activity (Human alphaherpesvirus 1 [4]) | selectivity ratio [5] | selectivity ratio [6] | CC50 at 72 h [7] [µM] | CC25 (Vero) [µM] | IC25 (Human alphaherpesvirus 1 [8]) [µM] | IC50 (Human alphaherpesvirus 1 [8]) [µM] | Activity (Human alphaherpesvirus 1 [9])
1 | COC(=O)C1=C(C)NC(=O)NC1c1ccc(Br)cc1 (configuration not stated) | Active | Active | inactive | inactive | 123 | 111 | 100 | 12.3 | 0.1 | 0.9 | inactive
2 | CC1=C(C(=O)Nc2ccccn2)C(c2cccs2)NC(=O)N1 (configuration not stated) | – | – | – | – | > 1 | > 1 | > 100 | > 100 | 97.7 | > 100 | –
